Legend:
Type in all cases: in vivo
[1] = tested on: green bristle grass (Setaria); test: Herbicide effect test against field weed (soil spray treatment before germination), Test example 1; conditions: dosage 500 g ai/ha, 2 weeks after treatment, 100% = complete death, 0% = no effect
Experimental: (§1) • Preparing preparation of active compound • Carrier: DMF 5 parts by weight • Emulsifier: benzyloxy polyglycol ether 1 part by weight
(§2) A preparation of active compound is obtained as an emulsion by mixing 1 part by weight of active compound with the above amounts of carrier and emulsifier. A prescribed amount of preparation is diluted with water.
(§3) In a greenhouse, seeds of field weeds [livid amaranth (Amaranthus), green bristle grass (Setaria)] were sown on the surface layer of 16 cm^2 pots filled with field soil (sandy loam) , and covered with soil. Here, one kind of grass was sown for one pot. Immediately after sowing, the prescribed diluted solutions which were prepared according to the above preparation method of the preparation of respective active compounds were sprayed to soil. After 2 weeks from the treatment, the herbicide effect of each of the compounds was examined. In the evaluation of herbicide effect, complete death was evaluated as 100%, and the case of no herbicide effect was evaluated as 0%. When the herbicide effect is 80% or more, such active compounds are evaluated to have practical utility as a herbicide.

[2] = tested on: livid amaranth (Amaranthus); test: as above; conditions: dosage 500 g ai/ha, 2 weeks after treatment, 100% = complete death, 0% = no effect
Experimental: as §1, §2, §3

[3] = tested on: barnyardgrass (Echinochloa); test: Selective herbicide effect test to field crop (soil spray treatment before germination), Test example 3, herbicide effect; conditions: 2 weeks after treatment, 100% = complete death
Experimental: as §1, §2
(§4) In a greenhouse, seeds of field crops [wheat (Triticum), corn (Zea), soy bean (Glycine)] and weeds [barnyardgrass (Echinochloa), southern crabgrass (Digitaria), livid amaranth (Amaranthus), fat hen (Chenopodium)] were sown on the surface layer of 16 cm^2 pots filled with field soil (sandy loam), and covered with soil. After 1 day, the prescribed diluted solutions of preparations of respective active compounds, which were prepared according to Test example 1, were sprayed to the soil. After 2 weeks from the treatment, phytotoxicity to crops and herbicide effect of respective compounds were examined. In the evaluation of herbicide effect and phytotoxicity, complete death was evaluated as 100%, and the case of no herbicide effect or no phytotoxicity was evaluated as 0%. When the herbicide effect is 80% or more, such active compounds are evaluated to have practical utility as a herbicide. When phytotoxicity is 20% or less, such active compounds are evaluated to have excellent safety as a herbicide.

fat hen (Chenopodium) = test: as above; conditions: 2 weeks after treatment, 100% = complete death
Experimental: as §1, §2, §4

[4] = tested on: livid amaranth (Amaranthus); test: as above; conditions: 2 weeks after treatment, 100% = complete death
Experimental: as §1, §2, §4

[5] = tested on: southern crabgrass (Digitaria); test: as above; conditions: 2 weeks after treatment, 100% = complete death
Experimental: as §1, §2, §4

corn (Zea) = test: Selective herbicide effect test to field crop (soil spray treatment before germination), Test example 3, phytotoxicity; conditions: 2 weeks after treatment, 100% = complete death, 0% = no phytotoxicity
Experimental: as §1, §2, §4

soy bean (Glycine) = test: as above; conditions: 2 weeks after treatment, 100% = complete death, 0% = no phytotoxicity
Experimental: as §1, §2, §4

wheat (Triticum) = test: as above; conditions: 2 weeks after treatment, 100% = complete death, 0% = no phytotoxicity
Experimental: as §1, §2, §4

Green bristle grass = test: Herbicide effect test against field weed (foliage spray treatment after germination), Test example 2; conditions: foliage spray treatment after germination (2nd-3rd leaf stage); dosage 500 g ai/ha; 2 weeks after treatment; 100% = complete death
Experimental: as §1, §2, §3
In a greenhouse, to 16 cm^2 pots filled with field soil (sandy loam), seedling plants (2nd-3rd leaf stage) of a field weed (Green bristle grass) were transplanted. After 1 day, the prescribed diluted solutions of preparations of respective active compounds, which were prepared according to the above Test example 1, were sprayed from the upside of the plant body. After 2 weeks from the treatment, the herbicide effect of each of the compounds was examined. Evaluation of herbicidal effect was carried out similarly to Test example 1.

corn = test: Selective herbicide effect test to field crop (foliage spray treatment after germination), Test example 4, phytotoxicity; conditions: 14 days after spraying, 100% = complete death, 0% = no phytotoxicity
Experimental: as §1, §2, §4
(§5) In a greenhouse, respective seeds of weeds (barnyardgrass, southern crabgrass, fat hen, and livid amaranth) and crops (wheat, corn, and soy bean) were sown on the surface layer of pots filled with field soil, and covered with soil. After one day and 10 days (average 2nd leaf stage for weeds) from the sowing and covering the seeds with soil, the prescribed diluted solutions of preparations of respective active compounds, which were prepared according to Test example 1, were uniformly sprayed onto the soil surfaces of respective test pots and the foliage parts of the plant bodies.
(§6) After 14 days from the spraying, the degree of herbicide effect was examined. Evaluation of herbicide effect and phytotoxicity were carried out similarly to Test example 3.

soy bean = test: as above; conditions: 14 days after spraying, 100% = complete death, 0% = no phytotoxicity
Experimental: as §1, §2, §4, §5, §6

wheat = test: as above; conditions: 14 days after spraying, 100% = complete death, 0% = no phytotoxicity
Experimental: as §1, §2, §4, §5, §6

barnyardgrass = test: Selective herbicide effect test to field crop (foliage spray treatment after germination), Test example 4, herbicide effect; conditions: 14 days after spraying, 100% = complete death, 0% = no effect
Experimental: as §1, §2, §4, §5, §6

fat hen = test: as above; conditions: 14 days after spraying, 100% = complete death, 0% = no effect
Experimental: as §1, §2, §4, §5, §6

livid amaranth = test: as above; conditions: 14 days after spraying, 100% = complete death, 0% = no effect
Experimental: as §1, §2, §4, §5, §6

southern crabgrass = test: as above; conditions: 14 days after spraying, 100% = complete death, 0% = no effect
Experimental: as §1, §2, §4, §5, §6

Cc1nc(-n2cncn2)ccc1C(=O)C1C(=O)CCCC1=O [1-1, 2-{[2-methyl-6-(1H-1,2,4-triazol-1-yl)pyridin-3-yl]carbonyl}cyclohexan-1,3-dione]
Herbicide effect, Green bristle grass [1]: 100%
Herbicide effect, Livid amaranth [2]: 100%
herbicide effect, Barnyardgrass ([3]; dosage 320 g/ha): 100%
herbicide effect, Fat hen (fat hen (Chenopodium); dosage 320 g/ha): 100%
Herbicide effect, Livid amaranth ([4]; dosage 320 g/ha): 80%
herbicide effect, Southern crabgrass ([5]; dosage 320 g/ha): 100%

O=C1CCCC(O)=C1C(=O)c1ccc(-n2cncn2)nc1COCC(F)(F)F [1-28]
phytotoxicity, Corn (corn (Zea); dosage 320 g/ha): 5%
phytotoxicity, Soy bean (soy bean (Glycine); dosage 320 g/ha): 10%
phytotoxicity, Wheat (wheat (Triticum); dosage 320 g/ha): 0%
herbicide effect, Barnyardgrass ([3]; dosage 320 g/ha): 100%
herbicide effect, Fat hen (fat hen (Chenopodium); dosage 320 g/ha): 100%
Herbicide effect, Livid amaranth ([4]; dosage 320 g/ha): 90%
herbicide effect, Southern crabgrass ([5]; dosage 320 g/ha): 100%

CSCc1nc(-n2cncn2)ccc1C(=O)C1=C(O)CCCC1=O [1-36]
Herbicide effect, Green bristle grass (Green bristle grass): 100%
phytotoxicity, Corn (corn; 320 g/ha): 10%
phytotoxicity, Soy bean (soy bean; 320 g/ha): 50%
phytotoxicity, Wheat (wheat; 320 g/ha): 0%
herbicide effect, Barnyardgrass (barnyardgrass; 320 g/ha): 100%
herbicide effect, Fat hen (fat hen; 320 g/ha): 90%
Herbicide effect, Livid amaranth (livid amaranth; 320 g/ha): 80%
herbicide effect, Southern crabgrass (southern crabgrass; 320 g/ha): 100%

CS(=O)(=O)Cc1nc(-n2cncn2)ccc1C(=O)C1=C(O)CCCC1=O [1-56]
phytotoxicity, Corn (corn; 320 g/ha): 50%
phytotoxicity, Soy bean (soy bean; 320 g/ha): 50%
phytotoxicity, Wheat (wheat; 320 g/ha): 0%
herbicide effect, Barnyardgrass (barnyardgrass; 320 g/ha): 100%
herbicide effect, Fat hen (fat hen; 320 g/ha): 90%
Herbicide effect, Livid amaranth (livid amaranth; 320 g/ha): 80%
herbicide effect, Southern crabgrass (southern crabgrass; 320 g/ha): 100%

COCCOCc1nc(-n2cncn2)ccc1C(=O)C1=C(O)CCCC1=O [1-66]
Herbicide effect, Green bristle grass (Green bristle grass): 90%
phytotoxicity, Corn (corn; 320 g/ha): 50%
phytotoxicity, Soy bean (soy bean; 320 g/ha): 50%
phytotoxicity, Wheat (wheat; 320 g/ha): 10%
herbicide effect, Barnyardgrass (barnyardgrass; 320 g/ha): 100%
herbicide effect, Fat hen (fat hen; 320 g/ha): 100%
Herbicide effect, Livid amaranth (livid amaranth; 320 g/ha): 100%
herbicide effect, Southern crabgrass (southern crabgrass; 320 g/ha): 100%

Cc1nc(-n2cncn2)ccc1C(=O)C1=C(O)CCC(C)C1=O (stereo not shown) [1-115]
Herbicide effect, Green bristle grass (Green bristle grass): 100%
phytotoxicity, Corn (corn (Zea); dosage 320 g/ha): 0%
phytotoxicity, Soy bean (soy bean (Glycine); dosage 320 g/ha): 10%
phytotoxicity, Wheat (wheat (Triticum); dosage 320 g/ha): 0%
herbicide effect, Barnyardgrass ([3]; dosage 320 g/ha): 100%
herbicide effect, Fat hen (fat hen (Chenopodium); dosage 320 g/ha): 100%
Herbicide effect, Livid amaranth ([4]; dosage 320 g/ha): 90%
herbicide effect, Southern crabgrass ([5]; dosage 320 g/ha): 100%

Cc1nc(-n2cncn2)ccc1C(=O)C1=C(O)CCC(C)(C)C1=O [1-457]
Herbicide effect, Green bristle grass (Green bristle grass): 100%
phytotoxicity, Corn (corn; 320 g/ha): 50%
phytotoxicity, Soy bean (soy bean; 320 g/ha): 40%
phytotoxicity, Wheat (wheat; 320 g/ha): 20%
herbicide effect, Barnyardgrass (barnyardgrass; 320 g/ha): 100%
herbicide effect, Fat hen (fat hen; 320 g/ha): 100%
Herbicide effect, Livid amaranth (livid amaranth; 320 g/ha): 100%
herbicide effect, Southern crabgrass (southern crabgrass; 320 g/ha): 100%

Cc1nc(-n2cncn2)ccc1C(=O)C1=C(O)C(C)(C)C(=O)C(C)(C)C1=O [1-685]
phytotoxicity, Corn (corn (Zea); dosage 80 g/ha): 30%
phytotoxicity, Soy bean (soy bean (Glycine); dosage 80 g/ha): 10%
phytotoxicity, Wheat (wheat (Triticum); dosage 80 g/ha): 40%
herbicide effect, Barnyardgrass ([3]; dosage 80 g/ha): 100%
herbicide effect, Fat hen (fat hen (Chenopodium); dosage 80 g/ha): 90%
Herbicide effect, Livid amaranth ([4]; dosage 80 g/ha): 90%
herbicide effect, Southern crabgrass ([5]; dosage 80 g/ha): 100%

Cc1nc(-n2cncn2)ccc1C(=O)c1cnn(C)c1O [2-1]
Herbicide effect, Green bristle grass [1]: 100%
Herbicide effect, Livid amaranth [2]: 100%
phytotoxicity, Corn (corn; 80 g/ha): 5%
phytotoxicity, Soy bean (soy bean; 80 g/ha): 50%
phytotoxicity, Wheat (wheat; 80 g/ha): 0%
herbicide effect, Barnyardgrass (barnyardgrass; 80 g/ha): 100%
herbicide effect, Fat hen (fat hen; 80 g/ha): 90%
Herbicide effect, Livid amaranth (livid amaranth; 80 g/ha): 100%
herbicide effect, Southern crabgrass (southern crabgrass; 80 g/ha): 95%

Cc1nc(-n2cncn2)ccc1C(=O)c1c(C)nn(C)c1O [2-229]
Herbicide effect, Green bristle grass [1]: 100%
Herbicide effect, Livid amaranth [2]: 100%
phytotoxicity, Corn (corn; 320 g/ha): 50%
phytotoxicity, Soy bean (soy bean; 320 g/ha): 60%
phytotoxicity, Wheat (wheat; 320 g/ha): 10%
herbicide effect, Barnyardgrass (barnyardgrass; 320 g/ha): 100%
herbicide effect, Fat hen (fat hen; 320 g/ha): 90%
Herbicide effect, Livid amaranth (livid amaranth; 320 g/ha): 100%
herbicide effect, Southern crabgrass (southern crabgrass; 320 g/ha): 100%

Cc1nc(-n2cncn2)ccc1C(=O)c1cnoc1C1CC1 [3-115]
Herbicide effect, Green bristle grass (Green bristle grass): 100%
phytotoxicity, Corn (corn (Zea); dosage 320 g/ha): 10%
phytotoxicity, Soy bean (soy bean (Glycine); dosage 320 g/ha): 20%
phytotoxicity, Wheat (wheat (Triticum); dosage 320 g/ha): 5%
herbicide effect, Barnyardgrass ([3]; dosage 320 g/ha): 100%
herbicide effect, Fat hen (fat hen (Chenopodium); dosage 320 g/ha): 100%
Herbicide effect, Livid amaranth ([4]; dosage 320 g/ha): 90%
herbicide effect, Southern crabgrass ([5]; dosage 320 g/ha): 100%

— patent publication US8658798B2, “Herbicide triazolylpyridine ketones” (Bayer Cropscience AG, priority 2007, dated 2014)
